Experimental data from US11092602B2, “Methods and compositions relating to proteasome inhibitor resistance” (Whitehead Institute for Biomedical Research, priority 2015, dated 2021).
“Also recorded” adds a separate entry of the source. Residues, ends and D or L forms follow the SMILES beside them. *: point of attachment. Cbz = O=C(OCc1ccccc1)*

Tests used:
IMR32 and Kelly cells [1] = test: CellTiter-Glo viability of IMR32 and Kelly neuroblastoma cells; type: cell-based; details: 72 hours
Method: IMR32 and Kelly cells were each cultured in the presence of bortezomib at concentrations ranging from 0.001 um to 0.100 um. […] The fold viability relative to culture in the absence of bortezomib was determined for each cell line.
The fold viability relative to culture in the absence of the compound was determined for each cell line.

T47D cells [2] = test: CellTiter-Glo viability of PSMD2 KD versus control T47D cells with BCL2 family inhibitors; type: cell-based, human
Method: Cell viability was measured by CellTiter-Glo® Luminescent Cell Viability Assay 72 hours after addition of the compounds to cells.

IMR32 and Kelly cells [3] = test: CellTiter-Glo viability of IMR32 and Kelly neuroblastoma cells; type: cell-based; details: 72 hours; remark: listed apart in the source
T47D cells [4] = test: Selleck anti-cancer compound library screen, PSMD2 KD versus control T47D cells (resazurin); type: cell-based, human; details: 4 concentrations, 72 hours
Method: After 48 hours the cells were collected, counted, and plated at 1000 cells/well in 384 well plates in duplicates for each cell line. Compounds from the Selleck Chemicals anti-cancer compound library β49 drugs in 4 concentrations; […]) were pinned the next day and viability was measured after 72 hours by the reduction of Resazurin (Ex=530 nm, Em=590 nm).
The effect of each drug on viability of cells was calculated by averaging the duplicate experiments. The data is plotted in FIG. 16 as the log2 of the ratio of viability of PSMD2 KD versus control cells (log2 (shPSMD2/Control)).

Saccharomyces cerevisiae = test: Yeast DAmP strains MG132 sensitivity assay; type: cell-based; details: 50 μM MG132, 48 hours
Description: Additionally, because the essential role of the proteasome in maintaining protein homeostasis is conserved across all eukaryotes (Hilt and Wolf, 1995), we asked whether reducing expression of 19S subunits confers resistance to proteasome inhibitors in an evolutionary distant organism—the yeast Saccharomyces cerevisiae. As the 19S regulatory complex components are essential for viability in yeast, we utilized a library of hypomorphic (DAmP) alleles for essential yeast genes. In this library, the expression of individual mRNA species is reduced from two to ten-fold by replacing the mRNA's 3′ untranslated region (Breslow et al., 2008).
Yeast cells were grown over night in media containing L-proline as nitrogen source instead of ammonium sulfate. […] OD was measured over the period of 48 hours.

T47D cells [5] = test: Cell viability of T47D cells with doxycycline-inducible PSMD2 shRNA; type: cell-based, human; details: for resistance of cells harboring the PSMD2 shRNA versus parental line (EC50): doxycycline 3 days, 96 hour culture
Method: T47D cells harboring a doxycycline inducible control shRNA (GFP) or a doxycycline-inducible PSMD2 shRNA (TurboRFP) were incubated with doxycycline for 3 days. Cells were then split and grown in the absence of Dox and proteasome inhibitors were then added at various concentrations. Cells were maintained in culture and then counted.
For the generation of the T47D Tet-inducible PSMD2 knockdown cell line—the TRIPZ vector with an inducible shRNA targeting PSMD2 was purchased from Dharmacon (clone V3THS_403760). It was introduced to the T47D cells according to manufactures protocol and cells were selected with puromycin 1 μg/ml for one week. The cells were exposed to doxycycline for 24 hours and cells were FACS sorted for the top 10% of most RFP expressing cells (highest expression of shRNA). The cells were further cultured in the absence of doxycycline and PSMD2 knockdown was induced as specified in the relevant Examples.
Relative cell growth and survival were measured in 96-well microplate format in the shRNA experiments and in 384 well format in the drug toxicity assays, by using the fluorescent detection of resazurin dye reduction as an endpoint (544 nm excitation and 590 nm emission). 2,500 cells in 96 wells format or 1,000 cells in 384 well format were plated 24 hours before compound exposure (for 72 hours or indicated time). Each analysis was performed at least with three replicas.

T47D cells [6] = test: Competition co-culture of shPSMD2-RFP and shControl-GFP T47D cells, FACS and microscopy; type: cell-based, human; details: 1:10 plating ratio; concentration-dependent
Method: We created two cell lines—one line that expresses red fluorescent protein (turboRFP) and the doxycycline-inducible PSMD2-targeting shRNA and another line that expresses green fluorescent protein (GFP) and a doxycycline-inducible control shRNA (FIG. 6A). First, we induced shRNA expression with doxycycline for 48 hours. After recovery, we mixed shPSMD2-RFP and shControl-GFP cells at different ratios (either 1:1, 1:2, 1:5 or 1:10), adding the cells with reduced PSMD2 as the minority subpopulation. Twenty-four hours after plating, we treated these mixed populations of cells for 48 hours with increasing concentrations of bortezomib (5, 7.5 or 10 nM). We allowed the cells to recover in the absence of bortezomib and then we quantified the red and green cells by FACS analysis (FIG. 6A) and captured representative images by fluorescence microscopy (FIG. 6B).
The experiment described in Example 10 was repeated with minor differences using a panel of different proteasome inhibitors: MLN2238, MLN9708, and oprozomib T47D cells harboring a doxycycline inducible control shRNA (GFP) or a doxycycline-inducible PSMD2 shRNA (TurboRFP) were incubated with doxycycline for 3 days. Cells were collected, counted, and plated at a 1:10 ratio of TurboRFP-expressing PSMD2 shRNA cells/GFP expression control shRNA cells in the absence of Dox. Proteasome inhibitors were added at the specified concentrations and cells were maintained in culture. Cells were allowed to recover in the absence of the proteasome inhibitor and then analyzed by FACS (FIG. 8B, top) or visualized by microscopy (FIG. 8B, bottom). In the absence of proteasome inhibitors, the initial plating ratio of these cells (1:10) was maintained over the duration of the experiment (FIG. 8B). […] The effect was concentration-dependent in that higher concentrations elicited more substantial shifts.
cells were trypsinized in 100 μL Accumax® solution and further diluted into 100 μl PBSx1. The number of cells with red or green fluorescent proteins was measured by MACSQuant® VYB according to manufactures protocol. Images of RFP and GFP were created by overlaying images using Fiji software.

Compound | sensitivity of IMR32 cells versus Kelly cells (IMR32 and Kelly cells [1]) | selective effect on viability, PSMD2 KD versus control cells (log2 (shPSMD2/Control)) (T47D cells [4]) | shift of surviving cell populations towards PSMD2 shRNA cells (T47D cells [6]) | resistance of cells harboring the PSMD2 shRNA versus parental line (EC50) (T47D cells [5]) | further results
CC1(C)CCC(c2ccc(Cl)cc2)=C(CN2CCN(c3ccc(C(=O)NS(=O)(=O)c4ccc(N[C@H](CCN5CCOCC5)CSc5ccccc5)c(S(=O)(=O)C(F)(F)F)c4)cc3)CC2)C1 [ABT-263, navitoclax] | dramatically more sensitive; also recorded: significantly more sensitive | selectively inhibits growth of T47D cancer cells that have a reduced level of PSMD2; also recorded: selectively reduce the viability of PSMD2 KD cells versus control cells | – | – | sensitivity of PSMD2 KD cells versus control cells (T47D cells [2]; 72 hours): more sensitive; sensitization by suppression of 19S subunit PSMD2 (T47D cells [2]; doxycycline-induced): not sufficient, however, to induce a profound sensitization; preferential sensitivity of IMR32 versus Kelly cells, compared between BCL2 family inhibitors (IMR32 and Kelly cells [3]): much greater; sensitivity after reintroduction of the PSMD5 subunit (IMR32 and Kelly cells [3]; IMR32 cells): did not significantly alter
COc1ccc(-c2ccc3c(N4CCOCC4)nc(N4C[C@@H](C)O[C@@H](C)C4)nc3n2)cc1CO [Ku-0063794] | – | selectively inhibit growth of T47D cancer cells that have a reduced level of PSMD2; also recorded: selectively reduce the viability of PSMD2 KD cells versus control cells | – | – | –
CC(C)C[C@@H](C=O)NC(=O)[C@H](CC(C)C)NC(=O)[C@H](CC(C)C)NC(=O)OCc1ccccc1 [MG132, N-(benzyloxycarbonyl)leucinylleucinylleucinal] (Cbz-Leu-Leu-Leu-aldehyde) | – | – | – | – | resistance of 19S subunit DAmP strains to proteasome inhibition (Saccharomyces cerevisiae): five of these twelve strains had significantly increased resistance; resistance upon doxycycline-induced reduction of PSMD2 (T47D cells [5]; PSMD2 shRNA versus control): significantly increased resistance
CC(C)C[C@H](NC(=O)CNC(=O)c1cc(Cl)ccc1Cl)B(O)O [MLN2238, ixazomib] | – | selectively reduce viability of control cells versus PSMD2 KD cells | substantially shifted the populations of surviving cells | – | –
CC(C)C[C@H](NC(=O)[C@H](CCc1ccccc1)NC(=O)CN1CCOCC1)C(=O)N[C@@H](Cc1ccccc1)C(=O)N[C@@H](CC(C)C)C(=O)[C@@]1(C)CO1 [carfilzomib] | – | – | – | considerably more resistant | –
Nc1nc(Cl)nc2c1ncn2[C@H]1C[C@H](O)[C@@H](CO)O1 [cladribine, 2-chlorodeoxyadenosine] | – | selectively inhibit growth of T47D cancer cells that have a reduced level of PSMD2; also recorded: selectively reduce the viability of PSMD2 KD cells versus control cells | – | – | –
CCN(CC)C(=S)SSC(=S)N(CC)CC [disulfiram, tetraethylthiuram disulfide] | dramatically more sensitive | selectively inhibit growth of T47D cancer cells that have a reduced level of PSMD2; also recorded: selectively reduce the viability of PSMD2 KD cells versus control cells | – | – | –
CN(NC(=O)CC(=O)NN(C)C(=S)c1ccccc1)C(=S)c1ccccc1 [elesclomol] | dramatically more sensitive | selectively inhibit growth of T47D cancer cells that have a reduced level of PSMD2; also recorded: selectively reduce the viability of PSMD2 KD cells versus control cells | – | – | –
COC[C@H](NC(=O)c1cnc(C)s1)C(=O)N[C@@H](COC)C(=O)N[C@@H](Cc1ccccc1)C(=O)[C@@]1(C)CO1 [oprozomib] | – | – | substantially shifted the populations of surviving cells | considerably more resistant | –
ixazomib citrate [MLN9708] | – | selectively reduce viability of control cells versus PSMD2 KD cells | substantially shifted the populations of surviving cells | considerably more resistant | –
